Experimental data reported in patent publication US20160102073A1, “2-HYDROXYMETHYL-SUBSTITUTED OREXIN RECEPTOR ANTAGONISTS” (MERCK SHARP & DOHME CORP., priority 2013, published 2016).

Columns and labels:
[1] = target: T1, human orexin-2 receptor (hOX2R) (Homo sapiens, UniProt O43614); experiment: FLIPR Ca2+ Flux Assay, CHO cells expressing hOX2R; format: cell-based; details: agonist 70 pM Ala-6,12 orexin-A
T1 construct: expressed in transfected cells; host or cells: Chinese hamster ovary (CHO) cells, grown under G418 selection
T1 sequence (O43614 1-444): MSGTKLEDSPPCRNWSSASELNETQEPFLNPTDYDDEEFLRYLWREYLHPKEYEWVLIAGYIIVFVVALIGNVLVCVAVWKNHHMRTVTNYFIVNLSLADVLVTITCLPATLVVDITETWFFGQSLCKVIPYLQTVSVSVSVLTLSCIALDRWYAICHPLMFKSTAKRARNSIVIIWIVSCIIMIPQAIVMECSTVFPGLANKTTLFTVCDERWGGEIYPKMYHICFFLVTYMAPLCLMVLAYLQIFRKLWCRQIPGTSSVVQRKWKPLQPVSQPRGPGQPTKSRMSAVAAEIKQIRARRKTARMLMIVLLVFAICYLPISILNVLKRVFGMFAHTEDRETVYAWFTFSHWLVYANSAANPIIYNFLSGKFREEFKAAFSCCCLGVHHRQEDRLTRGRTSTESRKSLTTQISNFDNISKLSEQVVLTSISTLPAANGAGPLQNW
Experimental: The utility of the compounds in accordance with the present invention as orexin receptor OX1R and/or OX2R antagonists may be readily determined without undue experimentation by methodology well known in the art, including the “FLIPR Ca^2+ Flux Assay” (Okumura et al., Biochem. Biophys. Res. Comm. 280:976-981, 2001). In a typical experiment the OX1 and OX2 receptor antagonistic activity of the compounds of the present invention was determined in accordance with the following experimental method. For intracellular calcium measurements, Chinese hamster ovary (CHO) cells expressing the rat orexin-1 receptor or the human orexin-2 receptor, are grown in Iscove's modified DMEM containing 2 mM L-glutamine, […], 1% hypoxanthine-thymidine supplement, 100 U/ml penicillin, 100 μg/ml streptomycin and 10% heat-inactivated fetal calf serum (FCS). The cells are seeded at 20,000 cells/well into Becton-Dickinson black 384-well clear bottom sterile plates coated with poly-D-lysine. All reagents were from GIBCO-Invitrogen Corp. The seeded plates are incubated overnight at 37° C. and 5% CO2. Ala-6,12 human orexin-A as the agonist is prepared as a 1 mM stock solution in 1% bovine serum albumin (BSA) and diluted in assay buffer (HBSS containing 20 mM HEPES, 0.1% BSA and 2.5 mM probenecid, pH7.4) for use in the assay at a final concentration of 70 pM. Test compounds are prepared as 10 mM stock solution in DMSO, then diluted in 384-well plates, first in DMSO, then assay buffer. On the day of the assay, cells are washed 3 times with 100 μl assay buffer and then incubated for 60 min (37° C., 5% CO2) in 60 μl assay buffer containing 1 μM Fluo-4AM ester, 0.02% pluronic acid, and 1% BSA. The dye loading solution is then aspirated and cells are washed 3 times with 100 μl assay buffer. 30 μl of that same buffer is left in each well. Within the Fluorescent Imaging Plate Reader (FLIPR, Molecular Devices), test compounds are added to the plate in a volume of 25 μl, incubated for 5 min and finally 25 μl of agonist is added. Fluorescence is measured for each well at 1 second intervals for 5 minutes and the height of each fluorescence peak is compared to the height of the fluorescence peak induced by 70 pM Ala-6,12 orexin-A with buffer in place of antagonist. For each antagonist, IC50 value (the concentration of compound needed to inhibit 50% of the agonist response) is determined. Alternatively, compound potency can be assessed by a radioligand binding assay (described in Bergman et. al. Bioorg. Med. Chem. Lett. 2008, 18, 1425-1430) in which the inhibition constant (Ki) is determined in membranes prepared from CHO cells expressing either the OX1 or OX2 receptor. The intrinsic orexin receptor antagonist activity of a compound which may be used in the present invention may be determined by these assays.
Chinese hamster ovary (CHO) cells expressing the human orexin-1 receptor (hOX1R) or the human orexin-2 receptor (hOX2R) were grown in Iscove's modified DMEM containing 2 mM L-glutamine, […], 1% hypoxanthine-thymidine supplement, 100 U/ml penicillin, 100 μg/ml streptomycin and 10% heat-inactivated fetal calf serum (FCS). The cells were seeded at 20,000 cells/well into Becton-Dickinson black 384-well clear bottom sterile plates coated with poly-D-lysine. All reagents were from GIBCO-Invitrogen Corp. The seeded plates were incubated overnight at 37° C. and 5% CO2. Ala-6,12 human orexin-A, used as the agonist, was prepared as a 1 mM stock solution in 1% bovine serum albumin (BSA) and diluted in assay buffer (HBSS containing 20 mM HEPES, 0.1% BSA and 2.5 mM probenecid, pH7.4) for use in the assay at a final concentration of 70 pM. Test compounds were prepared as 10 mM stock solution in DMSO, then diluted in 384-well plates, first in DMSO, then assay buffer. […]

[2] = target: T2, human orexin-1 receptor (hOX1R) (Homo sapiens, UniProt O43613); experiment: FLIPR Ca2+ Flux Assay, CHO cells expressing hOX1R; format: cell-based; details: agonist 70 pM Ala-6,12 orexin-A
T2 construct: expressed in transfected cells; host or cells: Chinese hamster ovary (CHO) cells, grown under G418 selection
T2 sequence (O43613 1-425): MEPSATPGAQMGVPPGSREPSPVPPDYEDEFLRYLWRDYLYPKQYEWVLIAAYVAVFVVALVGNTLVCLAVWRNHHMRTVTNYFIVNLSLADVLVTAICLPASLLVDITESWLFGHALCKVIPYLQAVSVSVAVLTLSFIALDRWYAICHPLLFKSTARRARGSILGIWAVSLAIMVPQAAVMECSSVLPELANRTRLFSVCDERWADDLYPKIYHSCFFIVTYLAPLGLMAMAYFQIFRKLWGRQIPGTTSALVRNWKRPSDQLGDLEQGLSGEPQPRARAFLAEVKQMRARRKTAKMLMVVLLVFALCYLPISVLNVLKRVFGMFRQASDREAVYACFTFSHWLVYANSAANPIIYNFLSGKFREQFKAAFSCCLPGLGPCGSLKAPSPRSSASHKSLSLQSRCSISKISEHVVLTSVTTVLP
Experimental: Chinese hamster ovary (CHO) cells expressing the human orexin-1 receptor (hOX1R) or the human orexin-2 receptor (hOX2R) were grown in Iscove's modified DMEM containing 2 mM L-glutamine, […], 1% hypoxanthine-thymidine supplement, 100 U/ml penicillin, 100 μg/ml streptomycin and 10% heat-inactivated fetal calf serum (FCS). The cells were seeded at 20,000 cells/well into Becton-Dickinson black 384-well clear bottom sterile plates coated with poly-D-lysine. All reagents were from GIBCO-Invitrogen Corp. The seeded plates were incubated overnight at 37° C. and 5% CO2. Ala-6,12 human orexin-A, used as the agonist, was prepared as a 1 mM stock solution in 1% bovine serum albumin (BSA) and diluted in assay buffer (HBSS containing 20 mM HEPES, 0.1% BSA and 2.5 mM probenecid, pH7.4) for use in the assay at a final concentration of 70 pM. Test compounds were prepared as 10 mM stock solution in DMSO, then diluted in 384-well plates, first in DMSO, then assay buffer.
On the day of the assay, cells were washed 3× with 100 μl assay buffer and then incubated for 60 minutes (37° C., 5% CO2) in 60 μl assay buffer containing 1 μM Fluo-4AM ester, 0.02% pluronic acid, and 1% BSA. The dye loading solution was then aspirated and cells were washed 3× with 100 μl assay buffer. 30 μl of that same buffer was left in each well. Within the Fluorescent Imaging Plate Reader (FLIPR, Molecular Devices), test compounds were added to the plate in a volume of 25 μl, incubated for 5 minutes, and then 25 μl of agonist was added. Fluorescence was measured for each well at 1 second intervals for 5 minutes, and the height of each fluorescence peak was compared to the height of the fluorescence peak induced by 70 pM of Ala-6,12 orexin-A with buffer in place of test compound.

| IC50 [1] [nM] | IC50 [2] [nM] | SMILES |
| --- | --- | --- |
| 17 | 103 | CCc1ccnc(O[C@@H]2CC[C@@H](C)N(C(=O)c3ccccc3-n3nccn3)C2)c1CO [Example 40, (4-Ethyl-2-{[(3R,6R)-6-methyl-1-{[2-(2H-1,2,3-triazol-2-yl)phenyl]carbonyl}piperidin-3-yl]oxy}pyridin-3-yl)methanol] |
| 37 | 50 | Cc1ccc(-n2nccn2)c(C(=O)N2C[C@H](Oc3ncccc3C(C)(C)O)CC[C@H]2C)c1 [Example 17, 2-(2-{[(3R,6R)-6-methyl-1-{[5-methyl-2-(2i-1,2,3-triazol-2-yl)phenyl]carbonyl}piperidin-3-yl]oxy}pyridin-3-yl)propan-2-ol] |
| 35 | 77 | C[C@@H]1CC[C@@H](Oc2ncccc2C(C)(C)O)CN1C(=O)c1sccc1-c1ncccn1 [Example 24, 2-[2-({(3R,6R)-6-methyl-1-[(3-pyrimidin-2-yl-thiophen-2-yl)carbonyl]piperidin-3-yl}oxy)pyridin-3-yl] propan-2-ol] |
| 18 | 925 | C[C@@H]1CC[C@@H](Oc2ncccc2CO)CN1C(=O)c1ccccc1-n1nccn1 [Example 39, (2-{[(3R,6R)-6-Methyl-1-{[2-(2H-1,2,3-triazol-2-yl)phenyl]carbonyl}piperidin-3-yl]oxy}pyridin-3-yl)methanol] |
| 22.5 | 463 | COc1ccnc(O[C@@H]2CC[C@@H](C)N(C(=O)c3ccccc3-n3nccn3)C2)c1C(C)O (stereo partly drawn) [Example 26, 1-(4-Methoxy-2-{[(3R,6R)-6-methyl-1-{[2-(2H-1,2,3-triazol-2-yl)phenyl]carbonyl}piperidin-3-yl]oxy}pyridin-3-yl)ethanol] |
| 104 | 265 | C[C@@H]1CC[C@@H](Oc2ncccc2C(C)(C)O)CN1C(=O)c1ccccc1N1CCCC1 [Example 12, 2-[2-({(3R,6R)-6-methyl-1-[(2-pyrrolidin-1-ylphenyl)carbonyl]piperidin-3-yl}oxy)pyridin-3-yl]propan-2-ol] |
| 26 | 584 | C#C[C@H](O)c1cccnc1O[C@@H]1CC[C@@H](C)N(C(=O)c2ccccc2-n2nccn2)C1 [Example 34, (1S)-1-(2-{[(3R,6R)-6-methyl-1-{[2-(2H-1,2,3-triazol-2-yl)phenyl]carbonyl}piperidin-3-yl]oxy}pyridin-3-yl)prop-2-yn-1-ol] |
| 30 | 44.5 | C[C@@H]1CC[C@@H](Oc2ncccc2C(C)(C)O)CN1C(=O)c1ccccc1-n1nccn1 [Example 1, 2-(2-{[(3R,6R)-6-Methyl-1-{[2-(2H-1,2,3-triazol-2-yl)phenyl]carbonyl}piperidin-3-yl]oxy}pyridin-3-yl)propan-2-ol] |
| 25 | 395 | COc1ccnc(O[C@@H]2CC[C@@H](C)N(C(=O)c3ccccc3-n3nccn3)C2)c1C(C)(C)O [Example 27, 2-(4-Methoxy-2-{[(3R,6R)-6-methyl-1-{[2-(2H-1,2,3-triazol-2-yl)phenyl]carbonyl}piperidin-3-yl]oxy}pyridin-3-yl)propan-2-ol] |
| 81 | 1990 | COc1ccnc(O[C@@H]2CC[C@@H](C)N(C(=O)c3cccc(F)c3-n3nccn3)C2)c1CO [Example 47, (3-Fluoro-2-(2H-1,2,3-triazol-2-yl)phenyl)((2R,5R)-5-((3-(hydroxymethyl)-4-methoxypyridin-2-yl)oxy)-2-methylpiperidin-1-yl)methanone] |
| 49 | 475 | C[C@@H]1CC[C@@H](Oc2ncccc2C(C)(C)O)CN1C(=O)c1ccc(F)cc1C1CC1 [Example 14, 2-[2-({(3R,6R)-1-[(2-cyclopropyl-4-fluorophenyl)carbonyl]-6-methylpiperidin-3-yl}oxy)pyridin-3-yl]propan-2-ol] |
| 135 | 349 | Cc1ccc(C(=O)N2C[C@H](Oc3ncccc3C(C)(C)O)CC[C@H]2C)c(C2CC2)c1 [Example 16, 2-[2-({(3R,6R)-1-[(2-cyclopropyl-4-methylphenyl)carbonyl]-6-methylpiperidin-3-yl}oxy)pyridin-3-yl]propan-2-ol] |
| 77 | 55 | Cc1ccc(C(C)(C)O)c(O[C@@H]2CC[C@@H](C)N(C(=O)c3ccccc3-n3nccn3)C2)n1 [Example 25, 2-(6-Methyl-2-{[(3R,6R)-6-methyl-1-{[2-(2H-1,2,3-triazol-2-yl)phenyl]carbonyl}piperidin-3-yl]oxy}pyridin-3-yl)propan-2-ol] |

| SMILES | IC50 [1] [nM] | IC50 [2] [nM] |
| --- | --- | --- |
| C[C@@H]1CC[C@@H](Oc2ncccc2C(C)(C)O)CN1C(=O)c1ccsc1-n1nccn1 [Example 18, 2-(2-{[(3R,6R)-6-methyl-1-{[2-(2H-1,2,3-triazol-2-yl)thiophen-3-yl]carbonyl}piperidin-3-yl]oxy}pyridin-3-yl)propan-2-ol] | 9 | 18 |
